Assay results from ChEMBL document CHEMBL3137667, “[Drug-induced liver injury; fourteenth updated edition of the bibliographic database of liver injuries and related drugs]” (Gastroenterol Clin Biol, 2004).

Assays:
[1] = Highest frequency of acute liver toxicity observed during clinical trials, expressed as a percentage. [column '% AIGUE' in source]; settings: human
[2] = human
[3] = human; remark: listed apart in the source
[4] = human, serum
[5] = human, serum; remark: listed apart in the source
[6] = human; remark: listed apart in the source
[7] = human; remark: listed apart in the source
[8] = human; remark: listed apart in the source
[9] = human; remark: listed apart in the source
[10] = human, serum, 4383 h
[11] = human; remark: listed apart in the source
[12] = Highest frequency of moderate liver toxicity observed during clinical trials, expressed as a percentage. [column '% BIOL' in source]; settings: human
[13] = Times to onset, minimal and maximal, observed in the indexed observations. [column 'DELAI' in source]; settings: human
[14] = Proposed mechanism(s) of liver damage. [column 'MEC' in source]; settings: human
[15] = human; remark: listed apart in the source
[16] = human; remark: listed apart in the source
[17] = Presence of at least one case with successful reintroduction. [column 'REINT' in source]; settings: human
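For Hepatotoxicity (association with vascular disease) in this document: count of indexed literature references reporting vascular liver injury in humans, e.g. peliosis hepatitis, hepatic veno-occlusive disease or Budd-Chiari syndrome.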
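For Hepatotoxicity (benign tumour) in this document: value is a count of indexed literature references citing a benign tumour confirmed by histopathology.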
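For Hepatotoxicity (choleostasis) in this document: human cholestatic liver injury, shown by histopathology or by peak ALT or AST elevation over alkaline phosphatase ratio below 2, value counts indexed literature reports.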
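For Hepatotoxicity (chronic liver disease) in this document: chronic liver injury confirmed by histopathology or persistently raised serum aminotransferase activity beyond 6 months, value given as the count of indexed literature references.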
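For Hepatotoxicity (cirrhosis) in this document: value is a count of indexed literature references reporting cirrhosis confirmed by histopathology.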
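For Hepatotoxicity (cytolytic) in this document: human cytolytic liver injury, shown by histopathology or by a ratio above 5 of peak ALT or AST elevation to alkaline phosphatase elevation, value counts indexed references.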
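For Hepatotoxicity (granulomatous hepatitis) in this document: value is a count of indexed literature references reporting granulomatous liver disease confirmed by histopathology.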
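For Hepatotoxicity (malignant tumour) in this document: malignant tumour confirmed by histopathology, value gives the count of indexed literature references reporting it.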
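For Hepatotoxicity (severe hepatitis) in this document: human clinical data: severe hepatitis, meaning potentially life-threatening liver failure or clinically observed cases, the value counts how many indexed literature references report it.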
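For Hepatotoxicity (steatosis) in this document: steatosis confirmed by histopathology, value is the count of indexed references.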

Nc1ccc(C(=O)O)c(O)c1 [AMINOSALICYLIC ACID]
Hepatotoxicity (acute) [1]: 6.4%
Hepatotoxicity (choleostasis) [2]: 9
Hepatotoxicity (association with vascular disease) [3]: 0
Hepatotoxicity (acute) [4]: 17
Hepatotoxicity (moderate) [5]: 6
Hepatotoxicity (benign tumour) [6]: 0
Hepatotoxicity (cytolytic) [7]: 11
Hepatotoxicity (granulomatous hepatitis) [8]: 0
Hepatotoxicity (malignant tumour) [9]: 0
Hepatotoxicity (chronic liver disease) [10]: 0
Hepatotoxicity (steatosis) [11]: 0
Hepatotoxicity (moderate) [12]: 35.3%
Hepatotoxicity (time to onset) [13]: 2 weeks - 2 months
Hepatotoxicity (mechanism) [14]: Allergic
Hepatotoxicity (severe hepatitis) [15]: 6
Hepatotoxicity (cirrhosis) [16]: 0
Hepatotoxicity (successful reintroduction) [17]: yes

O=C(O)COc1nn(Cc2ccccc2)c2ccccc12 [BENDAZAC]
Hepatotoxicity (acute) ([1]; Liver): 0%
Hepatotoxicity (choleostasis) ([2]; Liver): 2
Hepatotoxicity (association with vascular disease) [3]: 0
Hepatotoxicity (acute) [4]: 6
Hepatotoxicity (moderate) [5]: 0
Hepatotoxicity (benign tumour) [6]: 0
Hepatotoxicity (cytolytic) ([7]; Liver): 3
Hepatotoxicity (granulomatous hepatitis) ([8]; Liver): 0
Hepatotoxicity (malignant tumour) [9]: 0
Hepatotoxicity (chronic liver disease) [10]: 0
Hepatotoxicity (steatosis) [11]: 0
Hepatotoxicity (moderate) ([12]; Liver): 0%
Hepatotoxicity (time to onset) [13]: 3 weeks - 3.5 years
Hepatotoxicity (mechanism) ([14]; Liver): Allergic
Hepatotoxicity (severe hepatitis) ([15]; Liver): 0
Hepatotoxicity (cirrhosis) [16]: 0
Hepatotoxicity (successful reintroduction) [17]: yes

CC(C)C[C@H]1C(=O)N2CCC[C@H]2[C@]2(O)O[C@](NC(=O)[C@@H]3C=C4c5cccc6[nH]c(Br)c(c56)C[C@H]4N(C)C3)(C(C)C)C(=O)N12 [BROMOCRIPTINE]
Hepatotoxicity (acute) [1]: 0%
Hepatotoxicity (choleostasis) [2]: 0
Hepatotoxicity (association with vascular disease) [3]: 0
Hepatotoxicity (acute) [4]: 2
Hepatotoxicity (moderate) [5]: 6
Hepatotoxicity (benign tumour) [6]: 0
Hepatotoxicity (cytolytic) [7]: 2
Hepatotoxicity (granulomatous hepatitis) [8]: 0
Hepatotoxicity (malignant tumour) [9]: 0
Hepatotoxicity (chronic liver disease) [10]: 0
Hepatotoxicity (steatosis) [11]: 0
Hepatotoxicity (moderate) [12]: 22%
Hepatotoxicity (time to onset) [13]: 4 days - 2 months
Hepatotoxicity (mechanism) [14]: Dose-dependant
Hepatotoxicity (severe hepatitis) [15]: 0
Hepatotoxicity (cirrhosis) [16]: 0
Hepatotoxicity (successful reintroduction) [17]: yes

CO[C@]12CC[C@@]3(C[C@@H]1[C@](C)(O)C(C)(C)C)[C@H]1Cc4ccc(O)c5c4[C@@]3(CCN1CC1CC1)[C@H]2O5 [BUPRENORPHINE]
Hepatotoxicity (acute) [1]: 0%
Hepatotoxicity (choleostasis) [2]: 0
Hepatotoxicity (association with vascular disease) [3]: 0
Hepatotoxicity (acute) [4]: 3
Hepatotoxicity (moderate) [5]: 1
Hepatotoxicity (benign tumour) [6]: 0
Hepatotoxicity (cytolytic) [7]: 2
Hepatotoxicity (granulomatous hepatitis) [8]: 0
Hepatotoxicity (malignant tumour) [9]: 0
Hepatotoxicity (chronic liver disease) [10]: 0
Hepatotoxicity (steatosis) [11]: 0
Hepatotoxicity (moderate) [12]: 71%
Hepatotoxicity (time to onset) [13]: 2 days - 3 months
Hepatotoxicity (mechanism) [14]: Allergic, Overdose
Hepatotoxicity (severe hepatitis) [15]: 2
Hepatotoxicity (cirrhosis) [16]: 0
Hepatotoxicity (successful reintroduction) [17]: yes

CN1C(=O)CCS(=O)(=O)C1c1ccc(Cl)cc1 (centres undefined) [CHLORMEZANONE]
Hepatotoxicity (acute) [1]: 0%
Hepatotoxicity (choleostasis) [2]: 7
Hepatotoxicity (association with vascular disease) [3]: 0
Hepatotoxicity (acute) [4]: 8
Hepatotoxicity (moderate) [5]: 0
Hepatotoxicity (benign tumour) [6]: 0
Hepatotoxicity (cytolytic) [7]: 1
Hepatotoxicity (granulomatous hepatitis) [8]: 0
Hepatotoxicity (malignant tumour) [9]: 0
Hepatotoxicity (chronic liver disease) [10]: 0
Hepatotoxicity (steatosis) [11]: 0
Hepatotoxicity (moderate) [12]: 0%
Hepatotoxicity (time to onset) [13]: 1 day - 4 weeks
Hepatotoxicity (mechanism) [14]: Allergic, Dose-dependant
Hepatotoxicity (severe hepatitis) [15]: 2
Hepatotoxicity (cirrhosis) [16]: 0
Hepatotoxicity (successful reintroduction) [17]: yes

COC(=O)[C@H](c1ccccc1Cl)N1CCc2sccc2C1 [CLOPIDOGREL]
Hepatotoxicity (acute) ([1]; Liver): 0%
Hepatotoxicity (choleostasis) ([2]; Liver): 1
Hepatotoxicity (association with vascular disease) [3]: 0
Hepatotoxicity (acute) [4]: 5
Hepatotoxicity (moderate) [5]: 2
Hepatotoxicity (benign tumour) [6]: 0
Hepatotoxicity (cytolytic) ([7]; Liver): 4
Hepatotoxicity (granulomatous hepatitis) ([8]; Liver): 0
Hepatotoxicity (malignant tumour) [9]: 0
Hepatotoxicity (chronic liver disease) [10]: 0
Hepatotoxicity (steatosis) [11]: 0
Hepatotoxicity (moderate) ([12]; Liver): 3%
Hepatotoxicity (time to onset) [13]: 4 days - 5.5 months
Hepatotoxicity (mechanism) ([14]; Liver): Allergic
Hepatotoxicity (severe hepatitis) ([15]; Liver): 0
Hepatotoxicity (cirrhosis) [16]: 0
Hepatotoxicity (successful reintroduction) [17]: yes

Cc1onc(-c2ccccc2Cl)c1C(=O)N[C@@H]1C(=O)N2[C@@H]1SC(C)(C)[C@@H]2C(=O)O [CLOXACILLIN]
Hepatotoxicity (acute) [1]: 0%
Hepatotoxicity (choleostasis) [2]: 8
Hepatotoxicity (association with vascular disease) [3]: 0
Hepatotoxicity (acute) [4]: 9
Hepatotoxicity (moderate) [5]: 5
Hepatotoxicity (benign tumour) [6]: 0
Hepatotoxicity (cytolytic) [7]: 0
Hepatotoxicity (granulomatous hepatitis) [8]: 0
Hepatotoxicity (malignant tumour) [9]: 0
Hepatotoxicity (chronic liver disease) [10]: 0
Hepatotoxicity (steatosis) [11]: 0
Hepatotoxicity (moderate) [12]: 25%
Hepatotoxicity (time to onset) [13]: 2 days - 1 month
Hepatotoxicity (mechanism) [14]: Allergic
Hepatotoxicity (severe hepatitis) [15]: 0
Hepatotoxicity (cirrhosis) [16]: 0
Hepatotoxicity (successful reintroduction) [17]: yes
